This is an account of results in US20250257060A1, “OXADIAZOLE COMPOUND, PHARMACEUTICAL COMPOSITION COMPRISING SAME, AND USE THEREOF” (SUZHOU GENHOUSE BIO CO., LTD., priority 2022, published 2025).

Broadly, the Kp is tissue or fluid exposure divided by exposure in the circulation. The term AUC(0-inf) denotes total exposure, with the tail of the curve extrapolated. Low readings indicate less exposure, high ones more exposure. In general, AUC(0-t) refers to exposure summed from dosing to a finite time, without extrapolation to infinity. A lower AUC(0-t) goes with low exposure. As usually defined, the Tmax is the time from dosing to the highest level. For orientation: EC50 means the concentration that produces a half-maximal response. Lower therefore signals greater potency.

Test system in the first series: not listed separately
The series can be described thus: Brain-to-blood drug concentration ratio of mice. It is filed as in vivo. The conditions noted are these: mouse, brain, 5 mg/kg PO, 1 h, read-out: Brain drug concentration. The protocol:
On the day of administration, mice were weighed for actual body weight and the administration volume was calculated. In each group of 9 mice, the compound was administered by single intravenous (IV) injection or intragastric (PO) administration. Whole blood samples were collected via the orbit at prescribed time points. After blood sample collection, the samples were immediately transferred to labeled commercial sample tubes containing K2-EDTA (0.85-1.15 mg), followed by centrifugation (3200×g, 4° C., 10 min) and plasma collection. The plasma was transferred to a pre-cooled centrifuge tube, frozen in dry ice, and stored in an ultra-low temperature freezer at −60° C. or lower until the LC-MS/MS analysis. 20 μL of a plasma sample or brain tissue homogenate was taken and 80 μL of an internal standard solution (50 ng/mL solution of propafenone in acetonitrile) was added. The plate was sealed with a film sealer at 165° C., shaken on a micro oscillator (maximum vibration speed) for 10 min, and centrifuged at 4000 rpm for 20 min using a low-speed benchtop centrifuge, 10 μL of supernatant was transferred and 90 μL of acetonitrile was added. The mixture was vortexed and mixed well, and then the plate was sealed with the film sealer at 165° C. After the mixture was vortexed and mixed well, 1 μL of supernatant was taken for LC-MS/MS analysis. Plasma drug concentration data for the compounds were processed in a non-compartmental model using WinNonlin Version 6.3 (Pharsight, Mountain View, CA) pharmacokinetic software. The relevant pharmacokinetic parameters were calculated by a linear logarithmic trapezoid method.
Data processing: brain-to-blood drug concentration ratio of mice at the same time point=drug concentration in brain tissue/drug concentration in plasma
Consider `O=C(N[C@@H]1COCC[C@H]1N1Cc2ccc(-c3nnc(C(F)F)o3)cc2S1(=O)=O)C(F)F` [Compound 13], for which the concentration at 1 h turned out to be 218 ng/mL.

`O=C(N[C@@H]1CCOC[C@H]1N1Cc2ccc(-c3nnc(C(F)F)o3)cc2S1(=O)=O)C(F)F` [Compound 14]: the concentration at 1 h is 85.6 ng/mL.

The same series, now with this note: mouse, brain, 5 mg/kg PO, 2 h, read-out: Brain drug concentration.
Regarding `O=C(N[C@@H]1COCC[C@H]1N1Cc2ccc(-c3nnc(C(F)F)o3)cc2S1(=O)=O)C(F)F` [Compound 13], the concentration at 2 h amounted to 174 ng/mL.

Take `O=C(N[C@@H]1CCOC[C@H]1N1Cc2ccc(-c3nnc(C(F)F)o3)cc2S1(=O)=O)C(F)F` [Compound 14]: the concentration at 2 h came to 42.8 ng/mL.

The same series, now with this note: mouse, brain/plasma, 5 mg/kg PO, 1 h.
As to `O=C(N[C@@H]1COCC[C@H]1N1Cc2ccc(-c3nnc(C(F)F)o3)cc2S1(=O)=O)C(F)F` [Compound 13], the concentration ratio (Kp) at 1 h came to 0.07.

As for `O=C(N[C@@H]1CCOC[C@H]1N1Cc2ccc(-c3nnc(C(F)F)o3)cc2S1(=O)=O)C(F)F` [Compound 14], the Kp at 1 h amounted to 0.03.

Still in this series, the particulars now being: mouse, brain/plasma, 5 mg/kg PO, 2 h.
In the case of `O=C(N[C@@H]1COCC[C@H]1N1Cc2ccc(-c3nnc(C(F)F)o3)cc2S1(=O)=O)C(F)F` [Compound 13], the Kp at 2 h stood at 0.09.

In the case of `O=C(N[C@@H]1CCOC[C@H]1N1Cc2ccc(-c3nnc(C(F)F)o3)cc2S1(=O)=O)C(F)F` [Compound 14], the partition ratio (Kp) at 2 h was 0.03.

The same series, now with this note: mouse, plasma, 5 mg/kg PO, 1 h, read-out: Blood drug concentration.
Take `O=C(N[C@@H]1COCC[C@H]1N1Cc2ccc(-c3nnc(C(F)F)o3)cc2S1(=O)=O)C(F)F` [Compound 13]: the concentration at 1 h is 2950 ng/mL.

`O=C(N[C@@H]1CCOC[C@H]1N1Cc2ccc(-c3nnc(C(F)F)o3)cc2S1(=O)=O)C(F)F` [Compound 14]: the concentration at 1 h came to 2450 ng/mL.

The same series, now with this note: mouse, plasma, 5 mg/kg PO, 2 h, read-out: Blood drug concentration.
As for `O=C(N[C@@H]1COCC[C@H]1N1Cc2ccc(-c3nnc(C(F)F)o3)cc2S1(=O)=O)C(F)F` [Compound 13], the concentration at 2 h was found to be 1780 ng/mL.

`O=C(N[C@@H]1CCOC[C@H]1N1Cc2ccc(-c3nnc(C(F)F)o3)cc2S1(=O)=O)C(F)F` [Compound 14]: the concentration at 2 h is 1380 ng/mL.

Test system in a further series: not listed separately
The series can be described thus: Pharmacokinetic test in mice (IV and PO). It is filed as in vivo, BALB/c mice. The conditions noted are these: BALB/c, mouse, plasma, po, 5 mg/kg; read-out: C0/Cmax. The protocol:
In this example, the pharmacokinetic behavior of the compounds after intravenous injection (IV) and intragastric (PO) administration in BALB/c mice was tested.
On the day of administration, mice were weighed for actual body weight and the administration volume was calculated. Each compound was tested in two groups with 3 mice in each group, one group administered by single intravenous injection and the other group of mice by single intragastric administration. Whole blood samples were collected via the orbit at prescribed time points (0.25 h, 0.5 h, 1 h, 2 h, 4 h, 8 h, and 24 h after administration). After blood sample collection, the samples were immediately transferred to labeled commercial sample tubes containing K2-EDTA (0.85-1.15 mg), followed by centrifugation (3200×g, 4° C., 10 min) and plasma collection. The plasma was transferred to a pre-cooled centrifuge tube, frozen in dry ice, and stored in an ultra-low temperature freezer at −60° C. or lower until the LC-MS/MS analysis.
Plasma concentrations were determined by a LC-MS/MS method. Plasma drug concentration data for compounds 1 and 2 were processed in a non-compartmental model using WinNonlin Version 6.3 (Pharsight, Mountain View, CA) pharmacokinetic software. The relevant pharmacokinetic parameters were calculated by a linear logarithmic trapezoid method.
Take `O=C(N[C@@H]1COCC[C@H]1N1Cc2ccc(-c3nnc(C(F)F)o3)cc2S1(=O)=O)C(F)F` [Compound 13]: the Cmax was 7.13 µM.

As to `O=C(N[C@@H]1CCOC[C@H]1N1Cc2ccc(-c3nnc(C(F)F)o3)cc2S1(=O)=O)C(F)F` [Compound 14], the Cmax was determined as 7.27 µM.

Still in this series, the particulars now being: BALB/c, mouse, plasma; mice, IV 1 mg/kg.
As to `O=C(N[C@@H]1COCC[C@H]1N1Cc2ccc(-c3nnc(C(F)F)o3)cc2S1(=O)=O)C(F)F` [Compound 13], the area under the curve AUC(0-inf) was found to be 4.53 µM·h and the area under the curve AUC(0-t) worked out at 4.42 µM·h.

In the case of `O=C(N[C@@H]1CCOC[C@H]1N1Cc2ccc(-c3nnc(C(F)F)o3)cc2S1(=O)=O)C(F)F` [Compound 14], the AUC(0-inf) was 4.27 µM·h and the AUC(0-t) came to 4.22 µM·h.

Still in this series, the particulars now being: BALB/c, mouse, plasma; mice, IV 1 mg/kg (C0).
In the case of `O=C(N[C@@H]1COCC[C@H]1N1Cc2ccc(-c3nnc(C(F)F)o3)cc2S1(=O)=O)C(F)F` [Compound 13], the Cmax stood at 3.05 µM.

Consider `O=C(N[C@@H]1CCOC[C@H]1N1Cc2ccc(-c3nnc(C(F)F)o3)cc2S1(=O)=O)C(F)F` [Compound 14], for which the Cmax was 3.15 µM.

Staying with this series, now noted: BALB/c, mouse, plasma; mice, IV 1 mg/kg; read-out: MRT(0-∞).
Regarding `O=C(N[C@@H]1COCC[C@H]1N1Cc2ccc(-c3nnc(C(F)F)o3)cc2S1(=O)=O)C(F)F` [Compound 13], the MRT inf amounted to 1.85 h.

For `O=C(N[C@@H]1CCOC[C@H]1N1Cc2ccc(-c3nnc(C(F)F)o3)cc2S1(=O)=O)C(F)F` [Compound 14], the MRT inf is 1.5 h.

The same series, now with this note: BALB/c, mouse, plasma; mice, IV 1 mg/kg; read-out: Vz.
Consider `O=C(N[C@@H]1COCC[C@H]1N1Cc2ccc(-c3nnc(C(F)F)o3)cc2S1(=O)=O)C(F)F` [Compound 13], for which the Vd came out at 1.05 L/kg.

Take `O=C(N[C@@H]1CCOC[C@H]1N1Cc2ccc(-c3nnc(C(F)F)o3)cc2S1(=O)=O)C(F)F` [Compound 14]: the Vd is 0.928 L/kg.

The same series, now with this note: BALB/c, mouse, plasma; mice, PO 5 mg/kg.
For `O=C(N[C@@H]1COCC[C@H]1N1Cc2ccc(-c3nnc(C(F)F)o3)cc2S1(=O)=O)C(F)F` [Compound 13], the area under the curve AUC(0-inf) was found to be 22 µM·h, the AUC(0-t) stood at 21.4 µM·h and the time of peak concentration (Tmax) was determined as 30 min.

With `O=C(N[C@@H]1CCOC[C@H]1N1Cc2ccc(-c3nnc(C(F)F)o3)cc2S1(=O)=O)C(F)F` [Compound 14], the area under the curve AUC(0-inf) was 15.2 µM·h, the AUC(0-t) was 14.8 µM·h and the Tmax amounted to 30 min.

The same series, now with this note: BALB/c, mouse, plasma; mice, PO 5 mg/kg; read-out: MRT(0-∞).
Consider `O=C(N[C@@H]1COCC[C@H]1N1Cc2ccc(-c3nnc(C(F)F)o3)cc2S1(=O)=O)C(F)F` [Compound 13], for which the MRT inf worked out at 2.63 h.

For the compound `O=C(N[C@@H]1CCOC[C@H]1N1Cc2ccc(-c3nnc(C(F)F)o3)cc2S1(=O)=O)C(F)F` [Compound 14], the MRT inf came to 1.88 h.

Staying with this series, now noted: mice, IV 1 mg/kg.
`O=C(N[C@@H]1COCC[C@H]1N1Cc2ccc(-c3nnc(C(F)F)o3)cc2S1(=O)=O)C(F)F` [Compound 13] yielded a CLz of 0.48 L/h/kg and a t½z of 1.52 h.

`O=C(N[C@@H]1CCOC[C@H]1N1Cc2ccc(-c3nnc(C(F)F)o3)cc2S1(=O)=O)C(F)F` [Compound 14] yielded a CLz of 0.504 L/h/kg and a t½z of 1.277 h.

Still in this series, the particulars now being: mice, PO 5 mg/kg.
Regarding `O=C(N[C@@H]1COCC[C@H]1N1Cc2ccc(-c3nnc(C(F)F)o3)cc2S1(=O)=O)C(F)F` [Compound 13], the F is listed as 97.0% and the t½z was 1.52 h.

The compound `O=C(N[C@@H]1CCOC[C@H]1N1Cc2ccc(-c3nnc(C(F)F)o3)cc2S1(=O)=O)C(F)F` [Compound 14] displayed an F of 71.27% and a t½z of 1.48 h.

Another series relates to acetylation level of α-tubulin in HCT116 cells. The series can be described thus: Assay on acetylation level of α-tubulin, HCT116 cells. The series is classed as cell-based. Conditions: Homo sapiens, HCT-116, 6 h. The protocol: A375/HCT116/HCC827 cells at a logarithmic growth phase were taken, digested with a […] (trypsin), centrifuged, counted, and plated in a 96-well plate at an appropriate cell density (30,000 cells/well) at 100 µL/well, and an appropriate amount of PBS was added around the plate for water sealing. The next day, the cells were treated with the compounds at different concentrations (starting at 100 μM, 5-fold dilution, 9 concentration gradients). After 6 h, the medium was pipetted out and the cells were washed twice with 100 μL of PBST. The cells were then immobilized in 4% paraformaldehyde, and the plate was incubated at room temperature for 20 min. The stationary liquid was discarded and the cells were washed with PBST. 150 μL of special blocking buffer (containing 1% Triton-100) was added to each well for blocking at room temperature for 2 h, and the plate was washed with PBS to remove excess blocking buffer. α-tubulin (DM1A) mouse mAb and acetyl-α-tubulin (Lys40) (D20G3) XP rabbit mAb were diluted at a 1:2000 ratio with a blocking buffer containing 0.033% Triton-100. The dilutions were added to the 96-well plate and the plate was incubated overnight at 4° C. Meanwhile, a blank control group was set. The next day, the plate was washed twice with PBST. Secondary anti-mouse IgG (H+L) (DyLight™ 680 conjugate) and anti-rabbit IgG (H+L) (DyLight™ 800 conjugate) were diluted at a 1:2000 ratio with a blocking buffer containing 0.033% Triton-100. The dilutions were added to a 96-well plate and the plate was incubated at room temperature for 2 h. The plate was washed twice with PBST and once with PBS. Fluorescence signals at 700 nm and 800 nm were detected with a Li-COR Odyssey two-color near-infrared laser imager.
Turning to `O=C(N[C@@H]1COCC[C@H]1N1Cc2ccc(-c3nnc(C(F)F)o3)cc2S1(=O)=O)C(F)F` [Compound 13], the response was half-maximal at 133 nM (EC50).

Consider `O=C(N[C@@H]1CCOC[C@H]1N1Cc2ccc(-c3nnc(C(F)F)o3)cc2S1(=O)=O)C(F)F` [Compound 14], for which the midpoint of the response, the EC50, lay at 124 nM.
